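Five concentrations, 48 hours, 96-well plates. GI50: concentration for 50% inhibition of growth.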 Activity calls are given as the source filed them. No stated cut-off is given here; in the data, active = GI50 up to about 1.1 µM and inactive = higher.
Tests used:
Experiment in all cases: DTP human tumour cell line panel, 48 h
[1] = system: MDA-N
[2] = system: SK-OV-3
[3] = system: SW-620
[4] = system: HCT-15
[5] = system: LOX IMVI
[6] = system: U-251
[7] = system: HT-29
[8] = system: HL-60
[9] = system: MDA-MB-435
[10] = system: EKVX
[11] = system: KM12
[12] = system: SF-268
[13] = system: Malme-3M
[14] = system: SR
[15] = system: NCI-H23
[16] = system: SN12C
[17] = system: UACC-257
[18] = system: HCC 2998
[19] = system: A498
[20] = system: SF-539

Row | Compound | GI50 [1] | GI50 [2] | GI50 [3] | GI50 [4] | GI50 [5] | GI50 [6] | GI50 [7] | GI50 [8] | GI50 [9] | GI50 [10] | GI50 [11] | GI50 [12] | GI50 [13] | GI50 [14] | GI50 [15] | GI50 [16] | GI50 [17] | GI50 [18] | GI50 [19] | GI50 [20]
1 | CN(C)CCN(/C(=N/c1ccccc1)N1CCCC1)c1ccccc1 | 4.1 µM (inactive) | > 100 µM (inactive) | 31.7 µM (inactive) | 26.8 µM | 4.06 µM (inactive) | 68.5 µM (inactive) | 5.01 µM (inactive) | 11.6 µM (inactive) | 15.5 µM (inactive) | > 100 µM (inactive) | 20 µM (inactive) | > 100 µM (inactive) | > 100 µM (inactive) | 31.8 µM (inactive) | 31 µM (inactive) | 50.5 µM (inactive) | 55.1 µM (inactive) |  |  | 
2 | COC(=O)[C@H](C)[C@H]1CC[C@@](C)([C@H]2CC3C(C)(C)[C@H]4CCC(C)=C[C@H]4C[C@@]3(C)O2)OO1 (some centres undefined) |  | 30.5 µM (inactive) | 8.83 µM (inactive) | 10.5 µM | 1.6 µM (inactive) | 13 µM (inactive) | 13.5 µM (inactive) | 2.05 µM (inactive) |  | 13.7 µM (inactive) | 11.7 µM (inactive) | 8.77 µM (inactive) | 14.1 µM (inactive) | 9.12 µM (inactive) | 7.6 µM (inactive) | 11.1 µM (inactive) | 12.1 µM (inactive) | 6.68 µM (inactive) | 8.71 µM (inactive) | 15 µM (inactive)
3 | Oc1c(Cl)c(Cl)c(O)c(-c2cnc(-c3ncc(-c4c(O)c(Cl)c(Cl)c(O)c4Cl)s3)s2)c1Cl |  | 41.2 µM (inactive) | 21.4 µM (inactive) | 13.6 µM |  | 22.6 µM (inactive) | 35.6 µM (inactive) | 33.3 µM (inactive) | 21.9 µM (inactive) | 21.2 µM (inactive) | 29.2 µM (inactive) | 22 µM (inactive) | 29.4 µM (inactive) | 35.6 µM (inactive) | 19.3 µM (inactive) | 27.4 µM (inactive) | 29 µM (inactive) | 36.6 µM (inactive) |  | 24.3 µM (inactive)
4 | CC(=O)OC[C@@H](OC(C)=O)[C@@H](OC(C)=O)[C@H]1OC[C@@H]2C[C@H]([C@H]1OC(C)=O)N(Cc1ccccc1)O2 | > 100 µM (inactive) | 93.8 µM (inactive) | > 100 µM (inactive) |  | > 100 µM (inactive) | > 100 µM (inactive) | > 100 µM (inactive) | > 100 µM (inactive) | > 100 µM (inactive) | > 100 µM (inactive) | > 100 µM (inactive) | > 100 µM (inactive) | > 100 µM (inactive) | > 100 µM (inactive) | > 100 µM (inactive) | > 100 µM (inactive) | > 100 µM (inactive) | > 100 µM (inactive) |  | > 100 µM (inactive)
5 | C/C(=N\NC(=S)NNC(=S)N(C)c1ccccc1)c1ccccn1 | 4.06 µM (inactive) | 1.48 µM (inactive) | 0.489 µM (active) | 1.16 µM |  | 1.11 µM (active) | 0.455 µM (active) | 0.343 µM (active) | 3.52 µM (inactive) | 0.805 µM (active) | 4.21 µM (inactive) | 2.91 µM (inactive) | 1.66 µM (inactive) |  | 2.79 µM (inactive) | 1.6 µM (inactive) | 1.31 µM (inactive) | 1.32 µM (inactive) |  | 2.07 µM (inactive)
6 | CC(=O)C(CN(C)Cc1ccccc1)C(c1ccccc1)c1c(O)c2ccccc2oc1=O (centres undefined) |  | > 100 µM (inactive) | > 100 µM (inactive) | > 100 µM | > 100 µM (inactive) | > 100 µM (inactive) | > 100 µM (inactive) | 52.5 µM (inactive) |  | > 100 µM (inactive) | > 100 µM (inactive) | > 100 µM (inactive) | > 100 µM (inactive) | > 100 µM (inactive) | > 100 µM (inactive) | > 100 µM (inactive) | > 100 µM (inactive) | > 100 µM (inactive) | > 100 µM (inactive) | > 100 µM (inactive)
7 | CC(=O)O[C@H]1C(=O)[C@@]2(C)[C@H]([C@H](OC(=O)c3ccccc3)[C@]3(O)C[C@H](OC(=O)[C@H](O)[C@@H](NC(=O)CC(C)(C)C)c4ccccc4)C(C)=C1C3(C)C)C1(OC(C)=O)CO[C@@H]1C[C@@H]2O (some centres undefined) | 0.1 µM (active) | 0.00171 µM (active) | 0.00171 µM (active) | 0.223 µM | 0.00175 µM (active) | 0.00441 µM (active) | < 0.001 µM (active) | 0.00105 µM (active) | < 0.001 µM (active) | 0.193 µM (active) |  | 0.0023 µM (active) |  |  | 0.00237 µM (active) | 0.00287 µM (active) | 0.00684 µM (active) | 0.00231 µM (active) | 0.303 µM (active) | 0.00127 µM (active)
8 | COc1cc2c(cc1OC)-c1cc3ccc(OC)c(OC)c3c[n+]1CC2 [PALMATINE CHLORIDE] | > 100 µM (inactive) | > 100 µM (inactive) | > 100 µM (inactive) | > 100 µM |  | 27.9 µM (inactive) | > 100 µM (inactive) | > 100 µM (inactive) | > 100 µM (inactive) | > 100 µM (inactive) | > 100 µM (inactive) | 82.4 µM (inactive) | > 100 µM (inactive) | > 100 µM (inactive) |  | > 100 µM (inactive) | 48.5 µM (inactive) | > 100 µM (inactive) |  | > 100 µM (inactive)

Reference: ChEMBL document CHEMBL1201862, “PubChem BioAssay data set” (2004)
